# Measurements reported in patent publication US6573218B1, “Fused-benzene derivatives useful as herbicides” (Ishihara Sangyo Kaisha, Ltd., priority 1998, dated 2003).
# What was measured:
# Format in all cases: in vivo
# [1] = system: barnyardgrass (Echinochloa crus-galli, ECHCG); experiment: Pre-emerge greenhouse herbicide test; details: 250 g ai/ha, 14 days after application, scale 0-100 (0 no damage, 100 complete death)
# Text: (§1) A standard greenhouse herbicide activity screening system was used to evaluate the herbicidal efficacy and crop safety of these test compounds. Seven broadleaf weed species including redroot pigweed (Amaranthus retroflexus, AMARE), velvetleaf (Abutilon theophrasti, ABUTH), sicklepod (Cassia obtusifolia, CASOB), ivyleaf morningglory (Ipomoea hederacea, IPOHE), lambsquarters (Chenopodium album, CHEAL), common ragweed (Ambrosia artemisiifolia L., AMBEL), and cocklebur (Xanthium strumarium, XANST) were used as test species. Four grass weed species including green foxtail (Setaria viridis, SETVI), barnyardgrass (Echinochloa crus-galli, ECHCG), johnsongrass (Sorghum halepense, SORHA), and large crabgrass (Digitaria sanguinalis, DIGSA) were also used. In addition, three crop species, field corn (Zea mays L., var. Dekalb 527, CORN), soybean (Glycine max L., var. Pella 86, SOY), and upland rice (Ory0a sp., var.Tebonnet, RICE) were included.
# (§2) All plants were grown in 10 cm square plastic pots which were filled with a sandy loam soil mix. For pre-emerge tests, seeds were planted one day prior to application of the test compounds. For post-emerge tests, seeds were planted 8-21 days prior to the test to allow emergence and good foliage development prior to application of the test substances. At the time of the post-emerge application, plants of all species were usually at the 2-3 leaf stage of development.
# (§3) All test compounds were dissolved in acetone and applied to the test units in a volume of 187 l/ha. Test materials were applied at rates ranging from 15 g ai/ha to 1000 g ai/ha using a track sprayer equipped with a TJ8001E even flow flat fan spray nozzle. Plants were arranged on a shelf so that the top of the canopy (post-emerge) or top of the soil surface (pre-emerge) was 40-45 cm below the nozzle. Pressurized air was used to force the test solution through the nozzle as it was mechanically advanced over the top of all test plants/pots. This application simulates a typical commercial field herbicide application.
# (§4) In the post-emerge test, a commercial non-ionic surfactant was also included (0.25% v/v) to enhance wetting of the leaf surfaces of target plants. Immediately after application, test units of the pre-emerge applications were watered at the soil surface to incorporate the test materials.
# (§5) At 14 days after application of the test materials, phytotoxicity ratings were recorded. A rating scale of 0-100 was used as previously described in Research Methods in Weed Science, 2nd edition, B. Truelove, Ed., Southern Weed Science Society, Auburn University, Auburn, Ala., 1977. Briefly, “0” corresponds to no damage and “100” corresponds to complete death of all plants in the test unit. This scale was used both to determine efficacy against weed species and damage to crop species. Herbicide activity data for various compounds of this invention, which are shown by compound No. in Tables 1-14, are shown in Tables 16 and 17.
# [2] = system: lambsquarters (Chenopodium album, CHEAL); experiment: Pre-emerge greenhouse herbicide test; details: 250 g ai/ha, 14 days after application, scale 0-100 (0 no damage, 100 complete death)
# Text: as §1, §2, §3, §4, §5
# [3] = system: johnsongrass (Sorghum halepense, SORHA); experiment: Pre-emerge greenhouse herbicide test; details: 250 g ai/ha, 14 days after application, scale 0-100 (0 no damage, 100 complete death)
# Text: as §1, §2, §3, §4, §5
# [4] = system: large crabgrass (Digitaria sanguinalis, DIGSA); experiment: Pre-emerge greenhouse herbicide test; details: 250 g ai/ha, 14 days after application, scale 0-100 (0 no damage, 100 complete death)
# Text: as §1, §2, §3, §4, §5
# [5] = system: ivyleaf morningglory (Ipomoea hederacea, IPOHE); experiment: Pre-emerge greenhouse herbicide test; details: 250 g ai/ha, 14 days after application, scale 0-100 (0 no damage, 100 complete death)
# Text: as §1, §2, §3, §4, §5
# [6] = system: redroot pigweed (Amaranthus retroflexus, AMARE); experiment: Pre-emerge greenhouse herbicide test; details: 250 g ai/ha, 14 days after application, scale 0-100 (0 no damage, 100 complete death)
# Text: as §1, §2, §3, §4, §5
# [7] = system: sicklepod (Cassia obtusifolia, CASOB); experiment: Pre-emerge greenhouse herbicide test; details: 250 g ai/ha, 14 days after application, scale 0-100 (0 no damage, 100 complete death)
# Text: as §1, §2, §3, §4, §5
# [8] = system: velvetleaf (Abutilon theophrasti, ABUTH); experiment: Pre-emerge greenhouse herbicide test; details: 250 g ai/ha, 14 days after application, scale 0-100 (0 no damage, 100 complete death)
# Text: as §1, §2, §3, §4, §5
# [9] = system: green foxtail (Setaria viridis, SETVI); experiment: Pre-emerge greenhouse herbicide test; details: 250 g ai/ha, 14 days after application, scale 0-100 (0 no damage, 100 complete death)
# Text: as §1, §2, §3, §4, §5
# [10] = system: barnyardgrass (Echinochloa crus-galli, ECHCG); experiment: Post-emerge greenhouse herbicide test; details: 250 g ai/ha, 14 days after application
# Text: as §1, §2, §3, §4, §5
# [11] = system: lambsquarters (Chenopodium album, CHEAL); experiment: Post-emerge greenhouse herbicide test; details: 250 g ai/ha, 14 days after application
# Text: as §1, §2, §3, §4, §5
# [12] = system: johnsongrass (Sorghum halepense, SORHA); experiment: Post-emerge greenhouse herbicide test; details: 250 g ai/ha, 14 days after application
# Text: as §1, §2, §3, §4, §5
# [13] = system: large crabgrass (Digitaria sanguinalis, DIGSA); experiment: Post-emerge greenhouse herbicide test; details: 250 g ai/ha, 14 days after application
# Text: as §1, §2, §3, §4, §5
# [14] = system: ivyleaf morningglory (Ipomoea hederacea, IPOHE); experiment: Post-emerge greenhouse herbicide test; details: 250 g ai/ha, 14 days after application
# Text: as §1, §2, §3, §4, §5
# [15] = system: redroot pigweed (Amaranthus retroflexus, AMARE); experiment: Post-emerge greenhouse herbicide test; details: 250 g ai/ha, 14 days after application
# Text: as §1, §2, §3, §4, §5
# [16] = system: sicklepod (Cassia obtusifolia, CASOB); experiment: Post-emerge greenhouse herbicide test; details: 250 g ai/ha, 14 days after application
# Text: as §1, §2, §3, §4, §5
# [17] = system: velvetleaf (Abutilon theophrasti, ABUTH); experiment: Post-emerge greenhouse herbicide test; details: 250 g ai/ha, 14 days after application
# Text: as §1, §2, §3, §4, §5
# [18] = system: green foxtail (Setaria viridis, SETVI); experiment: Post-emerge greenhouse herbicide test; details: 250 g ai/ha, 14 days after application
# Text: as §1, §2, §3, §4, §5
# [19] = system: field corn (Zea mays L., var. Dekalb 527, CORN); experiment: Post-emerge greenhouse crop damage test
# Text: as §1, §2, §3, §4, §5
# [20] = system: upland rice (Ory0a sp., var.Tebonnet, RICE); experiment: Post-emerge greenhouse crop damage test
# Text: as §1, §2, §3, §4, §5
# [21] = system: soybean (Glycine max L., var. Pella 86, SOY); experiment: Post-emerge greenhouse crop damage test
# Text: as §1, §2, §3, §4, §5
# [22] = system: field corn (Zea mays L., var. Dekalb 527, CORN); experiment: Pre-emerge greenhouse crop damage test
# Text: as §1, §2, §3, §4, §5
# [23] = system: upland rice (Ory0a sp., var.Tebonnet, RICE); experiment: Pre-emerge greenhouse crop damage test; details: in vivo
# Text: as §1, §2, §3, §4, §5
# [24] = system: soybean (Glycine max L., var. Pella 86, SOY); experiment: Pre-emerge greenhouse crop damage test
# Text: as §1, §2, §3, §4, §5
# [25] = var. Dekalb 527, field corn (Zea mays L.), in vivo, 14 days
# [26] = var. Pella 86, soybean (Glycine max L.), in vivo, 14 days
# [27] = 250 g ai/ha, post-emerge, 14 days after application
# [28] = pre-emerge, 250 g ai/ha, 14 days after application, scale 0-100 (0 no damage, 100 complete death)
SMILES,Pre-emerge Herbicidal Activity ECHCG (phytotoxicity rating) [1],Pre-emerge Herbicidal Activity CHEAL (phytotoxicity rating) [2],Pre-emerge Herbicidal Activity SORHA (phytotoxicity rating) [3],Pre-emerge Herbicidal Activity DIGSA (phytotoxicity rating) [4],Pre-emerge Herbicidal Activity IPOHE (phytotoxicity rating) [5],Pre-emerge Herbicidal Activity AMARE (phytotoxicity rating) [6],Pre-emerge Herbicidal Activity CASOB (phytotoxicity rating) [7],Pre-emerge Herbicidal Activity ABUTH (phytotoxicity rating) [8],Pre-emerge Herbicidal Activity SETVI (phytotoxicity rating) [9],Post-emerge Herbicidal Activity ECHCG (phytotoxicity rating 0-100) [10],Post-emerge Herbicidal Activity CHEAL (phytotoxicity rating 0-100) [11],Post-emerge Herbicidal Activity SORHA (phytotoxicity rating 0-100) [12],Post-emerge Herbicidal Activity DIGSA (phytotoxicity rating 0-100) [13],Post-emerge Herbicidal Activity IPOHE (phytotoxicity rating 0-100) [14],Post-emerge Herbicidal Activity AMARE (phytotoxicity rating 0-100) [15],Post-emerge Herbicidal Activity CASOB (phytotoxicity rating 0-100) [16],Post-emerge Herbicidal Activity ABUTH (phytotoxicity rating 0-100) [17],Post-emerge Herbicidal Activity SETVI (phytotoxicity rating 0-100) [18],also measured
"Cn1c(C(F)(F)F)cc(=O)n(-c2c(F)cc(Cl)c3c2N=C(c2ccccc2)CO3)c1=O [Compound 1-3, 3-(8-Chloro-6-fluoro-3-phenyl-2H-1,4-benzoxazin-5-yl)-1-methyl-6-trifluoromethyl-2,4(1H,3H)-pyrimidindione]",0,100,0,0,0,100,80,80,80,0,20,0,0,30,60,0,90,0,"Post-emerge crop damage CORN (phytotoxicity rating 0-100) [19, 25]: 10; Post-emerge crop damage RICE (phytotoxicity rating 0-100) ([20]; var. Tebonnet, upland rice (Ory0a sp.), in vivo, 14 days): 20; Post-emerge crop damage SOY (phytotoxicity rating 0-100) [21, 26]: 30; Pre-emerge Herbicidal Activity CORN (crop damage rating) [22, 25]: 0; Pre-emerge Herbicidal Activity RICE (crop damage rating) ([23]; var. Tebonnet, upland rice (Ory0a sp.), 14 days): 10; Pre-emerge Herbicidal Activity SOY (crop damage rating) [24, 26]: 0"
Cn1c(C(F)(F)F)cc(=O)n(-c2c(F)cc(Cl)c3c2NC(=O)CO3)c1=O [Compound 4-1],70,100,95,100,100,100,100,100,100,30,100,40,30,100,100,80,100,10,"Post-emerge crop damage CORN (phytotoxicity rating 0-100) [19, 27]: 70; Post-emerge crop damage RICE (phytotoxicity rating 0-100) [20, 27]: 65; Post-emerge crop damage SOY (phytotoxicity rating 0-100) [21, 27]: 100; Pre-emerge Herbicidal Activity CORN (crop damage rating) [22, 28]: 90; Pre-emerge Herbicidal Activity RICE (crop damage rating) [23]: 90; Pre-emerge Herbicidal Activity SOY (crop damage rating) [24, 28]: 100"
